Measured values as given in ChEMBL document CHEMBL4627310, “Design, synthesis and biological evaluation of 3-nitro-1,8-naphthalimides as potential antitumor agents” (Bioorg Med Chem Lett, 2020).
The source made the active and inactive calls. No cut-off for these calls is given here.

How the values were obtained:
[1] = test system: A549; assay: Antiproliferative activity against human A549 cells assessed as cell growth inhibition measured after 48 hrs by MTT assay; type: functional, cell-based; conditions: A549, 48 h
[2] = Toxicity in mouse xenografted with human T24 cells assessed as effect on body weight at 5 to 15 mg/kg; type: organism-based, T-24; conditions: in vivo
[3] = test system: T-24; assay: Cell cycle arrest in human T24 cells assessed as accumulation at G1 phase at 4.13 uM measured after 24 hrs by propidium iodide staining based fluorescence analysis (reference value: 66.18%); type: functional
[4] = molecular target: T1, DNA topoisomerase 1 (Homo sapiens) (UniProt P11387); assay: Inhibition of topoisomerase 1 (unknown origin) mediated DNA relaxation at 20 uM by gel electrophoresis assay
T1 sequence (whole entry): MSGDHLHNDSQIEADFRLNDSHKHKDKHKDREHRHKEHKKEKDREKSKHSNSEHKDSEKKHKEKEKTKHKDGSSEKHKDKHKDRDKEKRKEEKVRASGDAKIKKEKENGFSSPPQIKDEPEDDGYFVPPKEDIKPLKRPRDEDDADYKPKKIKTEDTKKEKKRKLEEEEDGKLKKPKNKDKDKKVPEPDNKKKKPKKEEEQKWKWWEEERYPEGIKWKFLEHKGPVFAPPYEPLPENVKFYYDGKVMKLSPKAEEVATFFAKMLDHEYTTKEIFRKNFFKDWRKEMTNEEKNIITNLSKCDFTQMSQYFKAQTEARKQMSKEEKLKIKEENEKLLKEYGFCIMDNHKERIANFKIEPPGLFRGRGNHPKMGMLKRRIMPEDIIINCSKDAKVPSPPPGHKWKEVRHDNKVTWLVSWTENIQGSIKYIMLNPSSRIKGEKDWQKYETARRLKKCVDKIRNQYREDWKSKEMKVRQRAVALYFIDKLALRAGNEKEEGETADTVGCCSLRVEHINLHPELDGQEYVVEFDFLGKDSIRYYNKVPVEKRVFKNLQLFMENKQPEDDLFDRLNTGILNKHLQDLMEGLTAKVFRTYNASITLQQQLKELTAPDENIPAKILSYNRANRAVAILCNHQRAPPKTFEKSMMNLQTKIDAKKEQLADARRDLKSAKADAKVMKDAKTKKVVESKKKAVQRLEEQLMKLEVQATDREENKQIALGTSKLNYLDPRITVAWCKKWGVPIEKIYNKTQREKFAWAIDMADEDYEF

[5] = test system: T-24; assay: Induction of apoptosis in human T24 cells assessed as live cells at 8.26 uM by AnnexinV/propidium iodide staining based flow cytometry (reference value: 99.1%); type: functional
[6] = test system: T-24; assay: Induction of apoptosis in human T24 cells assessed as […] of Bax expression at 2 to 8 uM by Western blot analysis; type: functional, cell-based
[7] = test system: DNA; assay: Induction of DNA damage in human T24 cells assessed as inhibition of DNA replication at 10 uM measured after 24 hrs by EdU incorporation assay; type: cell-based; conditions: T-24
[8] = test system: T-24; assay: Induction of morphological changes in human T24 cells by AO/EB staining based assay; type: functional, cell-based
[9] = test system: T-24; assay: Induction of apoptosis in human T24 cells assessed as necrotic cells at 8.26 uM by AnnexinV/propidium iodide staining based flow cytometry (reference value: 0.1%); type: functional
[10] = test system: T-24; assay: Anticancer activity against human T24 cells xenografted in mouse assessed as tumor growth inhibition by measuring T/C ratio at 5 mg/kg measured at day 14 relative to control; type: functional
[11] = test system: T-24; assay: Cell cycle arrest in human T24 cells assessed as accumulation at G2/M phase at 4.13 uM measured after 24 hrs by propidium iodide staining based fluorescence analysis (reference value: 10.16%); type: functional
[12] = Toxicity in mouse xenografted with human HepG2 cells assessed as effect on body weight at 5 to 15 mg/kg; type: organism-based; conditions: in vivo
[13] = test system: T-24; assay: Induction of apoptosis in human T24 cells by AnnexinV/propidium iodide staining based flow cytometry; type: functional, cell-based
[14] = test system: SK-OV-3; assay: Antiproliferative activity against human SKOV3 cells assessed as cell growth inhibition measured after 48 hrs by MTT assay; type: functional, cell-based; conditions: SK-OV-3, 48 h
[15] = test system: T-24; assay: Induction of apoptosis in human T24 cells assessed as membrane blebbing by AO/EB staining based assay; type: functional, cell-based
[16] = Toxicity in mouse xenografted with human HepG2 cells assessed as adverse effect at 5 to 15 mg/kg; type: organism-based; conditions: in vivo
[17] = test system: T-24; assay: Induction of apoptosis in human T24 cells assessed as late apoptotic cells at 8.26 uM by AnnexinV/propidium iodide staining based flow cytometry (reference value: 0%); type: functional
[18] = test system: T-24; assay: Induction of cell cycle arrest in human T24 cells assessed as upregulation of cyclin-B1 expression at 2 to 8 uM by Western blot analysis; type: functional, cell-based
[19] = test system: T-24; assay: Induction of apoptosis in human T24 cells assessed as live cells at 4.13 uM by AnnexinV/propidium iodide staining based flow cytometry (reference value: 99.1%); type: functional
[20] = test system: DNA; assay: Induction of Escherichia coli supercoiled circular pBR322 DNA cleavage at 20 to 100 uM by gel electrophoresis mobility shift assay; type: nucleic-acid assay
[21] = Toxicity in mouse xenografted with human T24 cells assessed as adverse effect at 5 to 15 mg/kg; type: organism-based, T-24; conditions: in vivo
[22] = test system: HepG2; assay: Antiproliferative activity against human HepG2 cells assessed as cell growth inhibition measured after 48 hrs by MTT assay; type: functional, cell-based; conditions: HepG2, 48 h
[23] = test system: T-24; assay: Induction of apoptosis in human T24 cells assessed as […] of Bcl-2 expression at 2 to 8 uM by Western blot analysis; type: functional, cell-based
[24] = test system: HepG2; assay: Anticancer activity against human HepG2 cells xenografted in mouse assessed as tumor growth inhibition by measuring T/C ratio at 15 mg/kg measured at day 14 relative to control; type: functional
[25] = test system: T-24; assay: Induction of apoptosis in human T24 cells assessed as live cells at 2.06 uM by AnnexinV/propidium iodide staining based flow cytometry (reference value: 99.1%); type: functional
[26] = test system: T-24; assay: Cell cycle arrest in human T24 cells assessed as accumulation at S phase at 2.06 uM measured after 24 hrs by propidium iodide staining based fluorescence analysis (reference value: 23.67%); type: functional
[27] = test system: T-24; assay: Anticancer activity against human T24 cells xenografted in mouse assessed as tumor growth inhibition by measuring T/C ratio at 15 mg/kg measured at day 14 relative to control; type: functional
[28] = test system: HepG2; assay: Anticancer activity against human HepG2 cells xenografted in mouse assessed as tumor growth inhibition by measuring T/C ratio at 5 mg/kg measured at day 14 relative to control; type: functional

In the case of `CNCCN1C(=O)c2cccc3cc([N+](=O)[O-])cc(c23)C1=O`, the IC50 [1] is reported as 12.6 µM, the Activity [2] is reported as “Non-Toxic” and the Activity [3] is reported as 9.9%. For the same compound, the inhibition [4] was “Active”, the Activity [5] was 76.6% and the Activity [6] was “Active”. The Activity [7] was “Active”, the Activity [8] was “Active” and the Activity [9] was 0%. For the same compound, the T/C [10] was 62.9%, the Activity [11] was 82.11% and the Activity [12] was “Non-Toxic”. The Activity [13] was “Dose-dependent effect”, the IC50 [14] was 20.7 µM and the Activity [15] was “Active”. The Activity [16] was “Non-Toxic”, the Activity [17] was 0% and the Activity [18] was “Active”. For the same compound, the Activity [19] was 94.3%, the Activity [20] was “inactive” and the Activity [21] was “Non-Toxic”. The IC50 [22] was 9.2 µM, the Activity [23] was “Active” and the T/C [24] was 38.6%. It also gave an Activity [25] of 98.8%, an Activity [26] of 19.81% and a T/C [27] of 38.4%. For the same compound, the T/C [28] was 66.7%.
